Experiments:
tomato (Momotaro Fight) = experiment: Sprinkling of various compounds on tomato (Momotaro): first appearance, coloring and number of fruit; assay type: in vivo; conditions: per four root clumps; for number of fruit turning color to orange or red: 107th day after sowing, water: 0; for number of harvested fruits: after cultivation for 3 months after sowing, water: 8
Method: Three seeds of tomato (Momotaro Fight) were shown in compost contained in a slit pot, and cultivated in the same manner as described in Example 1, provided that the cultivation was performed in a greenhouse (daytime temperature was 25° C. (6:00 to 20:00), and night temperature was 15° C. (20:00 to 6:00)). The compost and application of fertilizer were the same or performed in the same manner as those described in Example 1. After 3 weeks, one root clump was left, and the others were thinned out. When a flower cluster of the first tier appeared, a support was put up, and after a flower cluster of the second tier appeared, pinching was performed (pinching of terminal bud). After the plants of four root clumps uniformly grew, and flower buds began to appear, water (Con.), 10 mM L-isoleucine aqueous solution (Ile), 10 mM monosodium glutamate aqueous solution (GluNa), 5 mM urea aqueous solution (Urea), or 10 mM phenylalanine aqueous solution (Phe) was sprinkled on the whole plants every two weeks. The sprinkled volume was adjusted in accordance with the growth of the plants, and it was 15 to 30 mL per one root clump. The concentration of urea was 5 mM so that nitrogen amount provided by it was the same as that provided by each of the amino acids. Then, the first appearance of fruit, ripening of fruit, and number of fruit produced were investigated for each root clump.

[1] = test system: cherry tomato (Suncherry Pure); assay type: in vivo; conditions: 10 mM sprinkled once a week
Method: Three seeds of cherry tomato (Suncherry Pure, Tokita Seed) were shown in compost contained in a slit pot, and cultivated in the same manner as described in Example 1, provided that the cultivation was performed in a greenhouse as in Example 2. The compost and application of fertilizer were the same or performed in the same manner as those described in Example 1. One month after the sowing, each seedling was permanently planted in a 9.0-cm long pot (top diameter 9 cm, height 20 cm, bottom diameter 6.4 cm), and cultivated until harvest. As for application of fertilizer, a 200-fold diluted solution of Vegetable Life A (Otsuka Chemical) was additionally applied as a fertilizer by irrigation in a volume of 100 mL per one root clump (pot) every two days from one month after the sowing to the harvest. After the plants of four root clumps uniformly grew, and flower buds began to appear, water (Con.), 10 mM L-isoleucine aqueous solution (Ile), or 10 mM proline aqueous solution (Pro) was sprinkled on the whole plants once a week. The sprinkled volume was adjusted in accordance with the growth of the plants, and it was 15 to 30 mL per one root clump. Then, ripening of fruit, number of fruit, amino acid content of fruit juice, sugar content and acidity of fruit juice, and antioxidant capacity of fruit juice were investigated for each root clump.

[2] = test system: cherry tomato (Suncherry Pure); experiment: Amino acid analysis of tomato fruit obtained with sprinkling of Ile or Pro; assay type: in vivo; conditions: fruit juice; plants sprinkled with 10 mM solution once a week; average of 8 fruit
Method: (§1) After the plants of four root clumps uniformly grew, and flower buds began to appear, water (Con.), 10 mM L-isoleucine aqueous solution (Ile), or 10 mM proline aqueous solution (Pro) was sprinkled on the whole plants once a week. The sprinkled volume was adjusted in accordance with the growth of the plants, and it was 15 to 30 mL per one root clump.
Mature fruit were taken from each of the cherry tomato plants sprinkled with water, Ile, or Pro, and the amino acid content was analyzed for each. Two pieces of fruit were taken from the flower cluster of the second tier of one root clump, that is, a total of 8 pieces of fruit were taken for each test group. Fruit juice was pressed out of each piece of fruit, and the fruit juice was diluted 10 times with 0.02 N HCl, and subjected to filter filtration. The amino acids contained in the obtained filtrate were measured. Measurement of the amino acids was performed with High Speed Amino Acid Analyzer L-8800 (Hitachi) according to the manual of this instrument. The amounts of the amino acids (μmol/mL) in each fruit juice filtrate were calculated, and the averages for eight pieces of fruit were used as the amino acid amounts of the corresponding test group.

[3] = test system: cherry tomato (Suncherry Pure); experiment: Sugar content and acidity analysis of tomato fruit juice; assay type: in vivo; conditions: 10 mM sprinkled once a week
Method: as §1
Mature tomato fruit were taken from cherry tomato plants of each experimental group in the same manner as described in iii) above, and fruit juice was pressed out from each fruit. Glucose content, fructose content, and acidity of each fruit juice extract were analyzed. Analysis of glucose and fructose was performed for a 20-fold diluted solution of fruit juice by using a food analysis reagent kit, F-Kit (Saccharose (Sucrose)/D-Glucose/D-Fructose Kit (Roche)) and DU800 Spectrophotometer (Beckman Coulter) according to the manuals of the kit and instrument. Acidity analysis was performed by using a pocket acidity meter (PAL-AC1, ATAGO).

[4] = test system: VR callus derived from European grape; experiment: Anthocyanin content of grape calluses treated with amino acids; assay type: cell-based, Vitis vinifera L.
Method: A cell line (VR, management number RPC00003) derived from European grape (Vitis vinifera L.) and stored in the Institute of Physical and Chemical Research, BioResource Center was subcultured on the MS agar medium. The subcultured VR callus was transferred to the MS agar medium containing a 5 mM solution of a different amino acid, and cultured. For the positive control, abscisic acid (ABA), for which coloring-promoting effect is known, was used at 100 μM (Jeong et al., Plant Science, 167:247-252, 2004). On the 5th day after the transfer, the callus was lyophilized and ground, and anthocyanin was extracted from it by using a 1% HCl/MeOH solution. Absorbance of the extract was measured at 530 nm, and the content of anthocyanin was measured by using cyanidine 3-glucoside as a standard substance.
(2) In the same manner as described above, anthocyanin content of grape calluses treated with isoleucine and proline, respectively, were measured.

`N[C@@H](CCC(=O)O)C(=O)[O-].[Na+]` [GluNa, monosodium glutamate] was tested, and the “number of fruit turning color to orange or red” value (“number of fruit turning color” for short) (tomato (Momotaro Fight)) was 1 and the “number of harvested fruits” value (tomato (Momotaro Fight)) was 14.
With `N[C@@H](Cc1ccccc1)C(=O)O` [Phe, phenylalanine] the “number of fruit turning color” value (tomato (Momotaro Fight)) was 0 and the “number of harvested fruits” value (tomato (Momotaro Fight)) was 8.
With `O=C(O)[C@@H]1CCCN1` [Pro, proline, reference compound] the “final crop yield: number of fruit produced, larger as compared to water (Con.)” value [1] was 9%, the “number of tomatoes that had changed color” value [1] was “larger in the order of the tomato plants sprinkled with Ile, Pro, and water (Con.)” and the “Ala in fruit juice” value [2] was 3.79 µmol/mL. The “Arg in fruit juice” value [2] was 0.13 µmol/mL, the “Asn in fruit juice” value [2] was 0.63 µmol/mL and the “Asp in fruit juice” value [2] was 1.75 µmol/mL. For the same molecule, the “Cys in fruit juice” value [2] was 0.08 µmol/mL, the “Gln in fruit juice” value [2] was 1.57 µmol/mL and the “Glu in fruit juice” value [2] was 7.76 µmol/mL. The “Gly in fruit juice” value [2] was 0.24 µmol/mL, the “His in fruit juice” value [2] was 0.17 µmol/mL and the “Ile in fruit juice” value [2] was 0.15 µmol/mL. For the same molecule, the “Leu in fruit juice” value [2] was 0.29 µmol/mL, the “Lys in fruit juice” value [2] was 0.27 µmol/mL and the “Met in fruit juice” value [2] was 0.14 µmol/mL. For the same molecule, the “Phe in fruit juice” value [2] was 0.38 µmol/mL, the “Pro in fruit juice” value [2] was 0.39 µmol/mL and the “Ser in fruit juice” value [2] was 0.61 µmol/mL. The “Thr in fruit juice” value [2] was 0.27 µmol/mL, the “Total amino acids in fruit juice” value [2] was 21.13 µmol/mL and the “Trp in fruit juice” value [2] was 0.072 µmol/mL. For the same molecule, the “Tyr in fruit juice” value [2] was 0.185 µmol/mL, the “Val in fruit juice” value [2] was 0.18 µmol/mL and the “γ-ABA in fruit juice” value [2] was 4.46 µmol/mL. For the same molecule, the “acidity of the fruit, comparison of groups” value [3] was “slightly increased”, the “glucose content and fructose content of the fruit, comparison of groups” value [3] was “lowest” and the Acidity ([3]; fruit juice of mature fruit) was 0.47%. The Fructose ([3]; fruit juice of mature fruit) was 12.2 g/L, the Glucose ([3]; fruit juice of mature fruit) was 12.3 g/L and the “change in color of the grape callus (anthocyanin content)” value ([4]; Ile of 1 mM or higher, Pro compared with Ile) was “weaker”.
`N[C@@H](Cc1ccc(O)cc1)C(=O)O` [Try, reference compound] was tested, and the Relative anthocyanin content ([4]; 5 mM amino acid in MS agar medium, 5th day after transfer, positive control 100 μM abscisic acid (ABA) taken as 100%) was 0%.
For `NC(N)=O` [Urea, urea], the “number of fruit turning color” value (tomato (Momotaro Fight)) was 1 and the “number of harvested fruits” value (tomato (Momotaro Fight)) was 10.

— patent US10226044B2, “Agricultural and horticultural composition and method for cultivating plant” (AJINOMOTO CO., INC., priority 2014, dated 2019)
